Source: ChEMBL document CHEMBL4339245, “Grayanane Diterpenoids from the Leaves of Rhododendron auriculatum and Their Analgesic Activities” (2019)
Active and inactive are the calls of the source. The calls are words filed in the database; no cut-off is given here.

Assays:
Mus musculus [1] = test: Analgesic activity in Kunming mouse model of acetic-acid-induced writhing assessed as inhibition of writhing numbers at 5 mg/kg measured for 30 mins relative to control; assay type: functional
Mus musculus [2] = test: Analgesic activity in Kunming mouse model of acetic-acid-induced writhing assessed as inhibition of writhing numbers at 1 mg/kg measured for 30 mins relative to control; assay type: functional, organism-based
Mus musculus [3] = test: Analgesic activity in Kunming mouse model of acetic-acid-induced writhing assessed as inhibition of writhing numbers at 0.04 mg/kg measured for 30 mins relative to control; assay type: functional, organism-based
Mus musculus [4] = test: Analgesic activity in Kunming mouse model of acetic-acid-induced writhing assessed as inhibition of writhing numbers at 0.2 mg/kg measured for 30 mins relative to control; assay type: functional, organism-based
Mus musculus [5] = test: Analgesic activity in Kunming mouse model of acetic-acid-induced writhing assessed as inhibition of writhing numbers at 0.04 to 0.2 mg/kg measured for 30 mins relative to control; assay type: functional, organism-based

Row | SMILES | Activity (Mus musculus [1]) | other results
1 | C=C1[C@@H]2CC[C@]3(O)C[C@@]2(C[C@@H](O)[C@@]2(O)[C@@H]1[C@H](O)[C@H](O)C2(C)C)C[C@@]3(C)O | Active | –
2 | C=C1[C@H]2C[C@H](O)C(C)(C)[C@@]2(O)[C@H](O)C[C@@]23C[C@@H](CC[C@@H]12)[C@](C)(O)C3 | Active | –
3 | C=C1[C@H]2C[C@H](O)C(C)(C)[C@]2(O)CC[C@@]23C[C@@H](CC[C@@H]12)[C@](C)(O)C3 | Active | –
4 | C=C1[C@H]2C[C@@H](O)C(C)(C)[C@]2(O)CC[C@@]23C[C@@H](CC[C@@H]12)[C@](C)(O)C3 | 64.1% | –
5 | C=C1[C@@H]2CC[C@@H]3C[C@@]2(C[C@@H](O)[C@@]2(O)[C@H]1C[C@H](O)C2(C)C)C[C@@]3(C)O | Active | –
6 | C=C1[C@H]2C[C@H](O)C(C)(C)[C@@]2(O)[C@H](O)C[C@]23C=C(C)[C@H](CC[C@@H]12)C3 | Active | –
7 | C=C1[C@@H]2CC[C@@H]3C[C@@]2(CC[C@@]2(O)[C@H]1C[C@H](O)C2(C)C)C[C@@]3(C)O | Active | –
8 | C=C1[C@@H]2CC[C@@H]3C[C@@]2(C[C@@H](O)[C@@]2(O)[C@H]1C[C@@H](O)C2(C)C)C[C@@]3(C)O | Active | –
9 | C=C1C2=C(C=C[C@@]34C[C@@H](CC[C@@H]13)[C@](C)(O)C4)C(C)(C)[C@@H](O)C2 | – | Activity (Mus musculus [2]): Active
10 | CN1CC[C@]23c4c5ccc(O)c4O[C@H]2[C@@H](O)C=C[C@H]3[C@H]1C5 | – | Activity (Mus musculus [3]): Active
11 | CC(=O)O[C@@H]1[C@H]2CC[C@H]3[C@@](C)(O)[C@@H]4C[C@H](O)C(C)(C)[C@@]4(O)[C@H](O)C[C@@]13C[C@@]2(C)O | – | Activity (Mus musculus [4]): Active; Activity (Mus musculus [5]): Active
12 | C=C1[C@@H]2CC[C@]3(O)C[C@@]2(C[C@@H](O)[C@@]2(O)[C@H]1C[C@H](O)C2(C)C)C[C@@]3(C)O | Active | –
13 | CO[C@H]1O[C@]23[C@H](O)C[C@@]45C[C@@](O)(CC[C@H]4[C@H]1[C@@H]2C[C@H](O)C3(C)C)[C@](C)(O)C5 | Active | –
14 | C=C1[C@H]2C[C@H](O)C(C)(C)[C@@]2(O)[C@H](O)C[C@@]23C[C@@](O)(CC[C@@H]12)[C@](C)(O)C3 | Active | –
15 | C=C1[C@@H]2CC[C@H]3C(C)=C[C@]2(C[C@@H](O)[C@@]2(O)[C@H]1C[C@H](O)C2(C)C)[C@@H]3OC(C)=O | – | Activity (Mus musculus [2]): Active
16 | C=C1[C@@H]2CC[C@@H]3[C@@H](O)[C@@]2(C[C@@H](O)[C@@]2(O)[C@H]1C[C@H](O)C2(C)C)C[C@@]3(C)O | Active | –
17 | CC1=C2CC[C@]3(O)C[C@@]2(C[C@@H](O)[C@@]2(O)[C@H]1[C@@H](O)[C@H](O)C2(C)C)C[C@@]3(C)O | Active | –
18 | C=C1[C@H]2C[C@H](O)[C@@](C)(CO)[C@]2(O)CC[C@@]23C[C@@H](CC[C@@H]12)[C@](C)(O)C3 | 58.8% | –
19 | C=C1[C@@H]2CC[C@@H]3C[C@@]2(CC[C@@]2(O)[C@H]1C[C@H](O)C2(C)C)C[C@]3(O)CO | Active | –
20 | CC1=C2C[C@H](O)C(C)(C)[C@@H]2C(=O)C[C@@]23C[C@@H](CC=C12)[C@](C)(O)C3 | Active | –
21 | CC1=C2CC[C@]3(O)C[C@@]2(C[C@@H](O)[C@@]2(O)[C@H]1C[C@H](O)C2(C)C)C[C@@]3(C)O | 52.3% | –
22 | C=C1[C@@H]2CC[C@@H]3C[C@@]2(C[C@@H](O)[C@@]2(O)[C@H]1C[C@H](O)C2(C)C)C[C@]3(O)CO | 53.7% | –
23 | C=C1[C@@H]2CC[C@@H]3[C@@H](OC(C)=O)[C@@]2(C[C@@H](O)[C@@]2(O)[C@H]1C[C@H](O)C2(C)C)C[C@@]3(C)O | – | Activity (Mus musculus [4]): Active; Activity (Mus musculus [5]): Active
24 | C=C1[C@@H]2[C@@H](O)[C@H](O)C(C)(C)[C@@]2(O)[C@H](O)C[C@@]23C[C@@](O)(CC[C@@H]12)[C@](C)(O)C3 | Active | –
25 | CC1(C)C2=CC[C@@]34C[C@@H](CC[C@H]3[C@@](C)(O)[C@H]2C[C@@H]1O)[C@](C)(O)C4 | Active | –
